How the values were obtained:
Echinochloa crus-galli [1] = assay: Pre-emergence herbicidal activity against Echinochloa crus-galli var. crus-galli at 400 g a.i./10a measured after 3 weeks by soil application test; type: functional
Rotala indica [2] = assay: Pre-emergence herbicidal activity against Rotala indica at 400 g a.i./10a measured after 3 weeks by paddy application test; type: functional
Pontederia vaginalis [3] = assay: Pre-emergence herbicidal activity against Monochoria vaginalis at 400 g a.i./10a measured after 3 weeks by paddy application test; type: functional
[4] = tested on: Schoenoplectiella juncoides; assay: Pre-emergence herbicidal activity against Schoenoplectiella juncoides var. Hotarui Ohwi at 400 g a.i./10a measured after 3 weeks by paddy application test; type: functional
Echinochloa oryzicola [5] = assay: Pre-emergence herbicidal activity against Echinochloa oryzicola at 400 g a.i./10a measured after 3 weeks by paddy application test; type: functional
Persicaria longiseta [6] = assay: Post-emergence herbicidal activity against Persicaria longiseta at 400 g a.i./10a measured after 3 weeks by foliar application test; type: functional
Chenopodium album [7] = assay: Post-emergence herbicidal activity against Chenopodium album at 400 g a.i./10a measured after 3 weeks by foliar application test; type: functional
Digitaria ciliaris [8] = assay: Post-emergence herbicidal activity against Digitaria ciliaris at 400 g a.i./10a measured after 3 weeks by foliar application test; type: functional
Echinochloa crus-galli [9] = assay: Post-emergence herbicidal activity against Echinochloa crus-galli var. crus-galli at 400 g a.i./10a measured after 3 weeks by foliar application test; type: functional
[10] = tested on: Amaranthus blitum subsp. oleraceus; assay: Pre-emergence herbicidal activity against Amaranthus blitum subsp. Oleraceus at 400 g a.i./10a measured after 3 weeks by soil application test; type: functional
Chenopodium album [11] = assay: Pre-emergence herbicidal activity against Chenopodium album at 400 g a.i./10a measured after 3 weeks by soil application test; type: functional
Digitaria ciliaris [12] = assay: Pre-emergence herbicidal activity against Digitaria ciliaris at 400 g a.i./10a measured after 3 weeks by soil application test; type: functional
[13] = target: Photosystem II D1 protein (psbA) (Spinacia oleracea); assay: Inhibition of photosynthetic electron transport activity in Spinacia oleracea thylakoids assessed as inhibition of oxygen release
Echinochloa crus-galli [14] = assay: Pre-emergence herbicidal activity against Echinochloa crus-galli var. crus-galli at 800 g a.i./10a measured after 3 weeks by soil application test; type: functional
Rotala indica [15] = assay: Pre-emergence herbicidal activity against Rotala indica at 800 g a.i./10a measured after 3 weeks by paddy application test; type: functional
Pontederia vaginalis [16] = assay: Pre-emergence herbicidal activity against Monochoria vaginalis at 800 g a.i./10a measured after 3 weeks by paddy application test; type: functional
[17] = tested on: Schoenoplectiella juncoides; assay: Pre-emergence herbicidal activity against Schoenoplectiella juncoides var. Hotarui Ohwi at 800 g a.i./10a measured after 3 weeks by paddy application test; type: functional
Echinochloa oryzicola [18] = assay: Pre-emergence herbicidal activity against Echinochloa oryzicola at 800 g a.i./10a measured after 3 weeks by paddy application test; type: functional
Chenopodium album [19] = assay: Pre-emergence herbicidal activity against Chenopodium album at 800 g a.i./10a measured after 3 weeks by soil application test; type: functional
Digitaria ciliaris [20] = assay: Pre-emergence herbicidal activity against Digitaria ciliaris at 800 g a.i./10a measured after 3 weeks by soil application test; type: functional
Persicaria longiseta [21] = assay: Pre-emergence herbicidal activity against Persicaria longiseta at 400 g a.i./10a measured after 3 weeks by soil application test; type: functional
Echinochloa crus-galli [22] = assay: Pre-emergence herbicidal activity against Echinochloa crus-galli var. crus-galli at 100 g a.i./10a measured after 3 weeks by soil application test; type: functional
[23] = tested on: Amaranthus blitum subsp. oleraceus; assay: Pre-emergence herbicidal activity against Amaranthus blitum subsp. Oleraceus at 100 g a.i./10a measured after 3 weeks by soil application test; type: functional
Chenopodium album [24] = assay: Pre-emergence herbicidal activity against Chenopodium album at 100 g a.i./10a measured after 3 weeks by soil application test; type: functional
Digitaria ciliaris [25] = assay: Pre-emergence herbicidal activity against Digitaria ciliaris at 100 g a.i./10a measured after 3 weeks by soil application test; type: functional

SMILES | Activity (Echinochloa crus-galli [1]) | Activity (Rotala indica [2]) | Activity (Pontederia vaginalis [3]) | Activity [4] | Activity (Echinochloa oryzicola [5]) | Activity (Persicaria longiseta [6]) | Activity (Chenopodium album [7]) | Activity (Digitaria ciliaris [8]) | Activity (Echinochloa crus-galli [9]) | Activity [10] | Activity (Chenopodium album [11]) | Activity (Digitaria ciliaris [12]) | Activity (Persicaria longiseta [21]) | other results
Cc1nc(NCc2ccc(Br)cc2)nc(C(F)(F)F)n1 | 5% | 5% | 5% | 6% | 4% | 6% | 6% | 6% | 4% | 5% | 5% | 5% |  | 
Cc1nc(NCc2cccc(Cl)c2)nc(C(F)(F)F)n1 |  |  |  |  |  |  |  |  |  |  |  |  |  | pI50 [13]: 7.21
Cc1nc(NCc2ccc(Cl)cc2)nc(C(F)(F)F)n1 | 3% | 6% | 6% | 6% | 6% | 6% | 6% | 6% | 4% | 6% | 5% | 5% |  | 
Cc1ccc(CNc2nc(C)nc(C(F)(F)F)n2)cc1 |  |  |  |  |  |  |  |  |  |  |  |  |  | pI50 [13]: 6.74
Cc1nc(NCc2ccc([N+](=O)[O-])cc2)nc(C(F)(F)F)n1 |  |  |  |  |  |  |  |  |  |  |  |  |  | pI50 [13]: 7.16
Cc1nc(C)nc(NCc2ccccc2)n1 |  |  |  |  |  | 0% | 0% | 0% | 0% |  |  |  |  | Activity (Echinochloa crus-galli [14]): 0%; Activity (Rotala indica [15]): 1%; Activity (Pontederia vaginalis [16]): 6%; Activity [17]: 0%; Activity (Echinochloa oryzicola [18]): 3%; Activity (Chenopodium album [19]): 0%; Activity (Digitaria ciliaris [20]): 0%
Cc1nc(NCc2ccccc2)nc(C(F)(F)F)n1 | 2% | 4% | 6% | 0% | 3% |  | 6% | 4% | 3% | 4% | 6% | 3% |  | 
Cc1ccc(CNc2nc(C)nc(C(F)F)n2)cc1 | 3% | 5% | 5% | 5% | 4% | 6% | 6% | 4% | 4% | 4% | 5% | 4% | 5% | 
Cc1nc(NCc2ccc([N+](=O)[O-])cc2)nc(C(F)F)n1 | 4% | 6% | 5% | 5% | 5% | 6% | 6% | 5% | 4% | 5% | 5% | 4% | 5% | 
Cc1nc(CF)nc(NCc2ccccc2)n1 | 1% | 0% | 0% | 0% | 0% | 4% | 6% | 1% | 0% | 4% | 5% | 1% | 2% | 
Cc1nc(CF)nc(NCc2ccc(Br)cc2)n1 | 4% | 6% | 5% | 5% | 5% | 6% | 6% | 5% | 4% | 5% | 5% | 4% | 5% | 
Cc1nc(CF)nc(NCc2ccc(Cl)cc2)n1 | 3% | 6% | 5% | 4% | 5% | 6% | 6% | 4% | 4% | 4% | 5% | 3% | 4% | 
Cc1nc(NCc2ccccc2)nc(C(F)F)n1 | 5% | 5% | 6% | 5% | 4% | 6% | 6% | 4% | 3% | 4% | 6% | 4% | 6% | 
Cc1nc(NCc2ccc(Br)cc2)nc(C(F)F)n1 | 4% | 6% | 6% | 6% | 6% | 6% | 6% | 6% | 6% | 5% | 6% | 5% | 6% | 
Cc1nc(NCc2ccc(Cl)cc2)nc(C(F)F)n1 | 4% | 6% | 6% | 6% | 5% | 6% | 6% | 6% | 6% | 5% | 6% | 5% | 6% | 
Cc1nc(NCc2cccc(Cl)c2)nc(C(F)F)n1 | 4% | 5% | 5% | 5% | 4% | 6% | 6% | 4% | 3% | 4% | 5% | 4% | 5% | 
CCNc1nc(Cl)nc(NCC)n1 [SIMAZINE] |  |  |  |  |  |  |  |  |  |  |  |  |  | Activity (Echinochloa crus-galli [22]): 2%; Activity [23]: 5%; Activity (Chenopodium album [24]): 2%; Activity (Digitaria ciliaris [25]): 3%
